In PubChem BioAssay (NCI):
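Dose response: 5 concentrations. Exposure: 48 h. Format: 96-well plates. Endpoint: linear interpolation; highest concentration if not reached. GI50: concentration for 50% inhibition of growth. TGI marks complete inhibition of growth.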

How the values were obtained:
Experiment in all cases: NCI-60 cell line screen, 48 h
OVCAR-3 ovarian = system: OVCAR-3 ovarian
SK-MEL-28 melanoma = system: SK-MEL-28 melanoma
SK-MEL-5 melanoma = system: SK-MEL-5 melanoma
DMS 273 small cell lung = system: DMS 273 small cell lung
SNB-78 CNS = system: SNB-78 CNS
HCT-15 colon = system: HCT-15 colon
EKVX NSCLC = system: EKVX NSCLC
DMS 114 small cell lung = system: DMS 114 small cell lung
RXF-631 renal = system: RXF-631 renal
SNB-19 CNS = system: SNB-19 CNS
SN12C renal = system: SN12C renal
NCI-H460 lung = system: NCI-H460 lung
IGROV1 ovarian = system: IGROV1 ovarian
MOLT-4 leukemia = system: MOLT-4 leukemia
SK-MEL-2 melanoma = system: SK-MEL-2 melanoma
NCI-H226 lung = system: NCI-H226 lung
KM20L2 colon = system: KM20L2 colon
UACC-257 melanoma = system: UACC-257 melanoma
UACC-62 melanoma = system: UACC-62 melanoma
ACHN renal = system: ACHN renal
SK-OV-3 ovarian = system: SK-OV-3 ovarian
A549 NSCLC = system: A549 NSCLC
MALME-3M melanoma = system: MALME-3M melanoma
XF 498 CNS = system: XF 498 CNS
NCI-H522 lung = system: NCI-H522 lung
M19-MEL melanoma = system: M19-MEL melanoma
SF-268 CNS = system: SF-268 CNS
SW-620 colon = system: SW-620 colon
CAKI-1 renal = system: CAKI-1 renal
RPMI-8226 leukemia = system: RPMI-8226 leukemia
SNB-75 CNS = system: SNB-75 CNS
786-0 renal = system: 786-0 renal
HCC-2998 colon = system: HCC-2998 colon
LXFL 529 NSCLC = system: LXFL 529 NSCLC
OVCAR-8 ovarian = system: OVCAR-8 ovarian
HOP-62 NSCLC = system: HOP-62 NSCLC
SF-539 CNS = system: SF-539 CNS
HCT-116 colon = system: HCT-116 colon
DLD-1 colon = system: DLD-1 colon
NCI-H23 lung = system: NCI-H23 lung
HT29 colon = system: HT29 colon
SF-295 CNS = system: SF-295 CNS
OVCAR-4 ovarian = system: OVCAR-4 ovarian
KM12 colon = system: KM12 colon
COLO 205 colon = system: COLO 205 colon
UO-31 renal = system: UO-31 renal
RXF 393 renal = system: RXF 393 renal
CCRF-CEM leukemia = system: CCRF-CEM leukemia
HOP-92 NSCLC = system: HOP-92 NSCLC
M14 melanoma = system: M14 melanoma
K-562 leukemia = system: K-562 leukemia
U251 CNS = system: U251 CNS
TK-10 renal = system: TK-10 renal
HL-60(TB) leukemia = system: HL-60(TB) leukemia
HOP-18 NSCLC = system: HOP-18 NSCLC
A498 renal = system: A498 renal
OVCAR-5 ovarian = system: OVCAR-5 ovarian
LOX IMVI melanoma = system: LOX IMVI melanoma
SR leukemia = system: SR leukemia

For `CC(C)N(C(C)C)[PH+]1O[PH+](N(C(C)C)C(C)C)O[PH+](N(C(C)C)C(C)C)O[PH+](N(C(C)C)C(C)C)O1.[C-]#[O+].[C-]#[O+].[C-]#[O+].[C-]#[O+].[C-]#[O+].[C-]#[O+].[C-]#[O+].[C-]#[O+].[Mo].[Mo]` (stereo unspecified), the GI50 (OVCAR-3 ovarian) was over 100 µM, the TGI (OVCAR-3 ovarian) was over 100 µM and the GI50 (SK-MEL-28 melanoma) was over 100 µM. The TGI (SK-MEL-28 melanoma) was over 100 µM, the GI50 (SK-MEL-5 melanoma) was over 100 µM and the TGI (SK-MEL-5 melanoma) was over 100 µM. For the same molecule, the GI50 (DMS 273 small cell lung) was over 100 µM, the TGI (DMS 273 small cell lung) was over 100 µM and the GI50 (SNB-78 CNS) was over 100 µM. The TGI (SNB-78 CNS) was over 100 µM, the GI50 (HCT-15 colon) was over 100 µM and the TGI (HCT-15 colon) was over 100 µM. It also gave a GI50 (EKVX NSCLC) of over 100 µM, a TGI (EKVX NSCLC) of over 100 µM and a GI50 (DMS 114 small cell lung) of over 100 µM. It also gave a TGI (DMS 114 small cell lung) of over 100 µM, a GI50 (RXF-631 renal) of over 100 µM and a TGI (RXF-631 renal) of over 100 µM. The GI50 (SNB-19 CNS) was over 100 µM, the TGI (SNB-19 CNS) was over 100 µM and the GI50 (SN12C renal) was over 100 µM. The TGI (SN12C renal) was over 100 µM, the GI50 (NCI-H460 lung) was over 100 µM and the TGI (NCI-H460 lung) was over 100 µM. The GI50 (IGROV1 ovarian) was over 100 µM, the TGI (IGROV1 ovarian) was over 100 µM and the GI50 (MOLT-4 leukemia) was over 100 µM. It also gave a TGI (MOLT-4 leukemia) of over 100 µM, a GI50 (SK-MEL-2 melanoma) of over 100 µM and a TGI (SK-MEL-2 melanoma) of over 100 µM. For the same molecule, the GI50 (NCI-H226 lung) was over 100 µM, the TGI (NCI-H226 lung) was over 100 µM and the GI50 (KM20L2 colon) was over 100 µM. It also gave a TGI (KM20L2 colon) of over 100 µM, a GI50 (UACC-257 melanoma) of over 100 µM and a TGI (UACC-257 melanoma) of over 100 µM. For the same molecule, the GI50 (UACC-62 melanoma) was over 100 µM, the TGI (UACC-62 melanoma) was over 100 µM and the GI50 (ACHN renal) was over 100 µM. For the same molecule, the TGI (ACHN renal) was over 100 µM, the GI50 (SK-OV-3 ovarian) was over 100 µM and the TGI (SK-OV-3 ovarian) was over 100 µM. The GI50 (A549 NSCLC) was over 100 µM, the TGI (A549 NSCLC) was over 100 µM and the GI50 (MALME-3M melanoma) was over 100 µM. It also gave a TGI (MALME-3M melanoma) of over 100 µM, a GI50 (XF 498 CNS) of over 100 µM and a TGI (XF 498 CNS) of over 100 µM. The GI50 (NCI-H522 lung) was over 100 µM, the TGI (NCI-H522 lung) was over 100 µM and the GI50 (M19-MEL melanoma) was over 100 µM. For the same molecule, the TGI (M19-MEL melanoma) was over 100 µM, the GI50 (SF-268 CNS) was over 100 µM and the TGI (SF-268 CNS) was over 100 µM. The GI50 (SW-620 colon) was over 100 µM, the TGI (SW-620 colon) was over 100 µM and the GI50 (CAKI-1 renal) was over 100 µM. It also gave a TGI (CAKI-1 renal) of over 100 µM, a GI50 (RPMI-8226 leukemia) of over 100 µM and a TGI (RPMI-8226 leukemia) of over 100 µM. It also gave a GI50 (SNB-75 CNS) of over 100 µM, a TGI (SNB-75 CNS) of over 100 µM and a GI50 (786-0 renal) of over 100 µM. For the same molecule, the TGI (786-0 renal) was over 100 µM, the GI50 (HCC-2998 colon) was over 100 µM and the TGI (HCC-2998 colon) was over 100 µM. For the same molecule, the GI50 (LXFL 529 NSCLC) was over 100 µM, the TGI (LXFL 529 NSCLC) was over 100 µM and the GI50 (OVCAR-8 ovarian) was over 100 µM. It also gave a TGI (OVCAR-8 ovarian) of over 100 µM, a GI50 (HOP-62 NSCLC) of over 100 µM and a TGI (HOP-62 NSCLC) of over 100 µM. The GI50 (SF-539 CNS) was over 100 µM, the TGI (SF-539 CNS) was over 100 µM and the GI50 (HCT-116 colon) was over 100 µM. For the same molecule, the TGI (HCT-116 colon) was over 100 µM, the GI50 (DLD-1 colon) was over 100 µM and the TGI (DLD-1 colon) was over 100 µM. For the same molecule, the GI50 (NCI-H23 lung) was over 100 µM, the TGI (NCI-H23 lung) was over 100 µM and the GI50 (HT29 colon) was over 100 µM. For the same molecule, the TGI (HT29 colon) was over 100 µM, the GI50 (SF-295 CNS) was over 100 µM and the TGI (SF-295 CNS) was over 100 µM. For the same molecule, the GI50 (OVCAR-4 ovarian) was over 100 µM, the TGI (OVCAR-4 ovarian) was over 100 µM and the GI50 (KM12 colon) was over 100 µM. It also gave a TGI (KM12 colon) of over 100 µM, a GI50 (COLO 205 colon) of over 100 µM and a TGI (COLO 205 colon) of over 100 µM. It also gave a GI50 (UO-31 renal) of over 100 µM, a TGI (UO-31 renal) of over 100 µM and a GI50 (RXF 393 renal) of over 100 µM. It also gave a TGI (RXF 393 renal) of over 100 µM, a GI50 (CCRF-CEM leukemia) of over 100 µM and a TGI (CCRF-CEM leukemia) of over 100 µM. The GI50 (HOP-92 NSCLC) was over 100 µM, the TGI (HOP-92 NSCLC) was over 100 µM and the GI50 (M14 melanoma) was over 100 µM. For the same molecule, the TGI (M14 melanoma) was over 100 µM, the GI50 (K-562 leukemia) was over 100 µM and the TGI (K-562 leukemia) was over 100 µM. For the same molecule, the GI50 (U251 CNS) was over 100 µM, the TGI (U251 CNS) was over 100 µM and the GI50 (TK-10 renal) was over 100 µM. The TGI (TK-10 renal) was over 100 µM, the GI50 (HL-60(TB) leukemia) was over 100 µM and the TGI (HL-60(TB) leukemia) was over 100 µM. For the same molecule, the GI50 (HOP-18 NSCLC) was over 100 µM, the TGI (HOP-18 NSCLC) was over 100 µM and the GI50 (A498 renal) was over 100 µM. It also gave a TGI (A498 renal) of over 100 µM, a GI50 (OVCAR-5 ovarian) of over 100 µM and a TGI (OVCAR-5 ovarian) of over 100 µM. The GI50 (LOX IMVI melanoma) was over 100 µM and the TGI (LOX IMVI melanoma) was over 100 µM.

In the case of `O=[N+]([O-])c1nccn1COCCO`, the TGI (SK-MEL-28 melanoma) is reported as over 100 µM, the TGI (SK-MEL-5 melanoma) is reported as over 100 µM and the TGI (DMS 273 small cell lung) is reported as over 100 µM. The TGI (SNB-78 CNS) was over 100 µM, the TGI (HCT-15 colon) was over 100 µM and the TGI (DMS 114 small cell lung) was over 100 µM. The TGI (RXF-631 renal) was over 100 µM, the TGI (SNB-19 CNS) was over 100 µM and the TGI (SN12C renal) was over 100 µM. For the same molecule, the TGI (NCI-H460 lung) was over 100 µM, the TGI (MOLT-4 leukemia) was over 100 µM and the TGI (SK-MEL-2 melanoma) was over 100 µM. The TGI (NCI-H226 lung) was over 100 µM, the TGI (KM20L2 colon) was over 100 µM and the TGI (SR leukemia) was over 100 µM. The TGI (UACC-257 melanoma) was over 100 µM, the TGI (ACHN renal) was over 100 µM and the TGI (SK-OV-3 ovarian) was over 100 µM. The TGI (A549 NSCLC) was over 100 µM, the TGI (MALME-3M melanoma) was over 100 µM and the TGI (XF 498 CNS) was over 100 µM. For the same molecule, the TGI (NCI-H522 lung) was over 100 µM, the TGI (SF-268 CNS) was over 100 µM and the TGI (SW-620 colon) was over 100 µM. It also gave a TGI (CAKI-1 renal) of over 100 µM, a TGI (RPMI-8226 leukemia) of over 100 µM and a TGI (SNB-75 CNS) of over 100 µM. For the same molecule, the TGI (786-0 renal) was over 100 µM, the TGI (HCC-2998 colon) was over 100 µM and the TGI (LXFL 529 NSCLC) was over 100 µM. For the same molecule, the TGI (HOP-62 NSCLC) was over 100 µM, the TGI (HCT-116 colon) was over 100 µM and the TGI (DLD-1 colon) was over 100 µM. The TGI (NCI-H23 lung) was over 100 µM, the TGI (HT29 colon) was over 100 µM and the TGI (SF-295 CNS) was over 100 µM. The TGI (OVCAR-4 ovarian) was over 100 µM, the TGI (KM12 colon) was over 100 µM and the TGI (COLO 205 colon) was over 100 µM. The TGI (RXF 393 renal) was over 100 µM, the TGI (CCRF-CEM leukemia) was over 100 µM and the TGI (HOP-92 NSCLC) was over 100 µM. The TGI (M14 melanoma) was over 100 µM, the TGI (U251 CNS) was over 100 µM and the TGI (TK-10 renal) was over 100 µM. For the same molecule, the TGI (HL-60(TB) leukemia) was over 100 µM, the TGI (HOP-18 NSCLC) was 97.8 µM and the TGI (A498 renal) was over 100 µM. For the same molecule, the TGI (OVCAR-5 ovarian) was over 100 µM and the TGI (LOX IMVI melanoma) was over 100 µM.
